# In patent US20050197372A1 (priority 2002, published 2005):
# Experiments:
# [1] = system: human platelets (platelet-rich plasma); assay: Platelet-rich plasma aggregation induced by 5 μM epinephrine; format: cell-based; details: for Platelet rich plasma platelet aggregation induced by 5 μM epinephrine: 60 minutes at 37° C., baseline 78 ± 10
# Method: (§1) None of them received aspirin or any other anti-platelet agents. All subjects underwent blood sampling after at least 30 minutes of rest and 2 or more hours of fasting. Blood was drawn between 8 and 10 a.m. in order to avoid any diurnal influence and sampled from an antecubital vein using a 21-gauge butterfly needle containing 3.8% sodium citrate (1:9 volume) after having discarded the first 1.5 ml of free running blood. Eleven Vacutainer tubes (4.5 ml) were collected for a total of 49 ml of whole blood-citrate mixture from each study participant. One tube was kept as an internal control and was incubated with buffer solution. […] To avoid possible observer bias, blood samples were coded and blinded. Sampling procedures, and platelet studies were performed by individuals unaware of the protocol.
# The citrate and whole blood mixture were centrifuged at 1200 g for 5 minutes in order to obtain platelet-rich plasma (PRP) which was kept at room temperature for use within 1 hour. Platelet counts were determined for each PRP sample with a Coulter Counter ZM (Coulter Co., Hialeah, Fla.). Platelet numbers were adjusted to 3.50×10 ^8/ml with homologous platelet-poor plasma. Platelet aggregation (PA) was induced by 5 μM ADP, and 5 μM epinephrine. All agonists were obtained from Chronolog Corporation (Havertown, Pa.). Aggregation studies were performed using a 4 channel Chronolog Lumi-Aggregometer (model 560-Ca). Aggregation was expressed as the maximum percentage of light transmittance change (% max) from the baseline at the end of the recording time, using platelet-poor plasma as a reference. Aggregation curves were recorded for 6 minutes and analyzed according to internationally established standards. Ruggeri Z M, Semin Hemat 1994; 31: 229-239.
# [2] = patients undergoing valsartan therapy; cited from earlier work
# [3] = system: platelet vitronectin receptor (CD51/CD61); assay: Whole blood flow cytometry, vitronectin receptor expression; format: cell-based, human; details: for Expression of platelet vitronectin receptor (CD51/CD61): baseline 11.2 ± 4.6
# Method: as §1
# (§2) The expression of platelet receptors was determined by using the following monoclonal antibodies: CD31 (platelet endothelial cell adhesion molecule (PECAM-1), CD41 (glycoprotein [GP] IIb/IIIa, (IIb (3), CD42b (GP Ib), CD 51/CD61 ((v (3, or vitronectin receptor), CD62p (P-selectin), CD107a (lysosome associated membrane protein-1; LAMP-1), CD 107b (LAMP-2), CD151 (platelet/endothelial tetraspan antigen-3; PETA-3), and PAC-1 for fibrinogen-platelet (PharMingen, San Diego, Calif.). Platelet-leukocyte interactions were assessed by using dual antibodies for a pan-platelet marker (CD 151), together with CD14, a monocyte/macrophage marker. The blood-citrate mixture (50 μl) was diluted with 450 μl Tris buffered saline (TBS) (10 mmol/L Tris, 0.15 mol/L sodium chloride) and mixed by gently inverting an Eppendorf tube 2 times. Five μl of the corresponding antibodies were then added to each solution and the samples were incubated for 30 minutes. After incubation, 400 μl of 2% buffered paraformaldehyde was added for fixation. The samples were analyzed by a Becton Dickinson FACScan flow cytometer set up to measure fluorescent light scatter, as described in Gurbel P A, et al., J Am Coll Cardiol. 1998; 31: 1466-1473. The data were collected in list mode files and then analyzed. P selectin was expressed as percent positive cells as described in Gurbel P A, et al, Am Heart J 2000; 139: 320-328. Other antigens were expressed as log mean fluorescence intensity.
# [4] = system: human platelets in whole blood; assay: Whole blood impedance platelet aggregation induced by collagen; format: cell-based; details: for Whole blood impedance platelet aggregation induced by 1 μg/ml collagen: 60 minutes at 37° C., baseline 29 ± 7
# Method: as §1
# The methods are described in detail in Abbate R, et al., Amer J Clin Pathol 1986; 86: 91-96. Briefly, the whole blood citrate mixture was diluted 1:1 with 0.5 ml TBS, then swirled gently. The cuvette with the stirring bar was placed in the incubation well and allowed to warm to 37° C. for 5 minutes. Then the sample was transferred to the assay well. An electrode was placed in the sample cuvette. Platelet aggregation was stimulated with 1 μg/ml collagen. Platelet aggregation studies were performed using a Chrono-Log Whole Blood Aggregometer using Aggrolink” software. Platelet aggregability was expressed as the change in electrical impedance and is expressed in ohms.
# [5] = system: platelet/endothelial cell adhesion molecule-1 (PECAM-1, CD31); assay: Whole blood flow cytometry, PECAM-1 expression; format: cell-based, human; details: for Expression of platelet/endothelial cell adhesion molecule-1 (PECAM-1, CD31): baseline 69.2 ± 10.3
# Method: as §1, §2
# [6] = system: Glycoprotein IIb/IIIa activity (fibrinogen binding, PAC-1); assay: Whole blood flow cytometry, GP IIb/IIIa activity (PAC-1); format: cell-based, human; details: for Glycoprotein IIb/IIIa activity (fibrinogen binding, PAC-1): baseline 10.3 ± 2.8
# Method: as §1, §2
# [7] = system: shear-induced platelet aggregation; assay: PFA-100 closure time, epinephrine/collagen cartridge; format: cell-based, human; details: for PFA-100 closure time with the epinephrine/collagen cartridge: baseline 201 ± 22
# Method: as §1
# The platelet function analyzer (PFA-100′, Dade Behring, Deerfield, Ill.) is a device that simulates changes in primary hemostasis after injury to a small vessel under flow conditions. Kundu S K, et al., Semin Thromb Hemost 1995; 21(Suppl 2): 106-112. The time required to obtain occlusion of the aperture was digitally recorded as a measure of shear-induced platelet aggregation. Closure time determinations were performed in duplicate.
structure (smiles),measurement,setting,value
"CC(O)CCC(=O)N(Cc1ccc(-c2ccccc2-c2nnn[nH]2)cc1)[C@H](C(=O)O)C(C)C (stereo partly drawn) [Valeryl 4-hydroxy valsartan, (S)-2{(4-Hydroxy-pentanoyl)-[2′-(1H-tetrazol-5-yl)-biphenyl-4-ylmethyl]amino}-3-methyl-butyric Acid]",Effect on epinephrine-induced platelet aggregation (in words),"[1]; PRP, 5 μM epinephrine, preincubation with escalating doses 10 nM to 100 μM",inhibited epinephrine-induced aggregation in concentration 1 μM and 10 μM
same,Platelet rich plasma platelet aggregation induced by 5 μM epinephrine,[1]; drug 10 nM,77 ± 10%
same,Platelet rich plasma platelet aggregation induced by 5 μM epinephrine,[1]; drug 100 nM,76 ± 9%
same,Platelet rich plasma platelet aggregation induced by 5 μM epinephrine,[1]; drug 1 μM,54 ± 11%
same,Platelet rich plasma platelet aggregation induced by 5 μM epinephrine,[1]; drug 10 μM,56 ± 13%
same,Platelet rich plasma platelet aggregation induced by 5 μM epinephrine,[1]; drug 100 μM,52 ± 9%
same,"Effect on epinephrine-induced aggregation, FIG. 1 aggregation curves (in words)","[1]; one study patient, incubation with 1 μM",blocks epinephrine-induced aggregation
same,Level in plasma as share of valsartan levels,[2],10%
same,Expression of platelet vitronectin receptor (CD51/CD61),[3]; drug 10 nM,12.1 ± 4.2 log MFI
same,Expression of platelet vitronectin receptor (CD51/CD61),[3]; drug 100 nM,8.5 ± 3.1 log MFI
same,Expression of platelet vitronectin receptor (CD51/CD61),[3]; drug 1 μM,8.1 ± 3.8 log MFI
same,Expression of platelet vitronectin receptor (CD51/CD61),[3]; drug 10 μM,7.2 ± 5.6 log MFI
same,Expression of platelet vitronectin receptor (CD51/CD61),[3]; drug 100 μM,7.6 ± 3.3 log MFI
same,Effect on expression of vitronectin receptors (in words),[3]; whole blood flow cytometry,moderately reduced
same,Effect on collagen-induced platelet aggregation in whole blood (in words),"[4]; 1 μM collagen as printed in text, within the range of therapeutic activity",inhibited aggregation
same,Whole blood impedance platelet aggregation induced by 1 μg/ml collagen,[4]; drug 10 nM,32 ± 8 ohms
same,Whole blood impedance platelet aggregation induced by 1 μg/ml collagen,[4]; drug 100 nM,31 ± 9 ohms
same,Whole blood impedance platelet aggregation induced by 1 μg/ml collagen,[4]; drug 1 μM,14 ± 6 ohms
same,Whole blood impedance platelet aggregation induced by 1 μg/ml collagen,[4]; drug 10 μM,16 ± 8 ohms
same,Whole blood impedance platelet aggregation induced by 1 μg/ml collagen,[4]; drug 100 μM,17 ± 8 ohms
same,"Expression of platelet/endothelial cell adhesion molecule-1 (PECAM-1, CD31)",[5]; drug 10 nM,74.2 ± 13.4 log MFI
same,"Expression of platelet/endothelial cell adhesion molecule-1 (PECAM-1, CD31)",[5]; drug 100 nM,69.7 ± 15.1 log MFI
same,"Expression of platelet/endothelial cell adhesion molecule-1 (PECAM-1, CD31)",[5]; drug 1 μM,70.3 ± 16.4 log MFI
same,"Expression of platelet/endothelial cell adhesion molecule-1 (PECAM-1, CD31)",[5]; drug 10 μM,73.1 ± 9.3 log MFI
same,"Expression of platelet/endothelial cell adhesion molecule-1 (PECAM-1, CD31)",[5]; drug 100 μM,71.2 ± 15.5 log MFI
same,Effect on PECAM-1 (CD31) (in words),[5]; whole blood flow cytometry,not associated with any effect
same,"Glycoprotein IIb/IIIa activity (fibrinogen binding, PAC-1)",[6]; drug 10 nM,11.0 ± 4.5 log MFI
same,"Glycoprotein IIb/IIIa activity (fibrinogen binding, PAC-1)",[6]; drug 100 nM,9.0 ± 3.3 log MFI
same,"Glycoprotein IIb/IIIa activity (fibrinogen binding, PAC-1)",[6]; drug 1 μM,6.7 ± 2.7 log MFI
same,"Glycoprotein IIb/IIIa activity (fibrinogen binding, PAC-1)",[6]; drug 10 μM,7.5 ± 3.1 log MFI
same,"Glycoprotein IIb/IIIa activity (fibrinogen binding, PAC-1)",[6]; drug 100 μM,9.9 ± 3.0 log MFI
same,Effect on fibrinogen binding (PAC-1) (in words),[6]; whole blood flow cytometry,slightly reduced
same,Antiplatelet properties compared with valsartan (in words),[7]; cartridge-based analyzers (PFA-100 and Ultegra),stronger antiplatelet properties than valsartan
same,PFA-100 closure time with the epinephrine/collagen cartridge,[7]; drug 10 nM,179 ± 28 s
same,PFA-100 closure time with the epinephrine/collagen cartridge,[7]; drug 100 nM,190 ± 24 s
same,PFA-100 closure time with the epinephrine/collagen cartridge,[7]; drug 1 μM,259 ± 20 s
same,PFA-100 closure time with the epinephrine/collagen cartridge,[7]; drug 10 μM,257 ± 25 s
same,PFA-100 closure time with the epinephrine/collagen cartridge,[7]; drug 100 μM,232 ± 31 s
